{"source": "paper PMC7037862", "about": "“Tricyclic Nucleobase Analogs and Their Ribosides as Substrates and Inhibitors of Purine-Nucleoside Phosphorylases III. Aminopurine Derivatives” (Molecules, 2020)", "key": {"[1]": {"assay": "Ionization constants (pKa), determined spectrophotometrically", "format": "physicochemical", "conditions": "phosphate and/or acetate buffers", "procedure": "Fluorescence spectra were measured on a Varian Eclipse instrument (Varian Corp., Palo Alto, CA, USA), and UV absorption kinetic experiments were performed on a Cary 5000 (Varian Corp., Palo Alto, CA, USA) thermostated spectrophotometer. Fluorescence yields were determined relative to tryptophan (0.15) or 1,N^6-ethenoadenosine in water (0.56, see ref. [2]). Emission spectra were measured in semi-micro cuvettes, pathlength 4 mm, to diminish the inner-filter effect. Typical spectral resolution was 2.5 nm. The ionization constants (pKa values) were determined spectrophotometrically using 20–50 mM phosphate and/or acetate buffers."}, "calf spleen PNP (wt)": {"target": "T1, calf spleen PNP (wt) (Bos taurus, UniProt P55859)", "T1 construct": "made in house; host or cells: E. coli", "T1 sequence (P55859 1-289)": "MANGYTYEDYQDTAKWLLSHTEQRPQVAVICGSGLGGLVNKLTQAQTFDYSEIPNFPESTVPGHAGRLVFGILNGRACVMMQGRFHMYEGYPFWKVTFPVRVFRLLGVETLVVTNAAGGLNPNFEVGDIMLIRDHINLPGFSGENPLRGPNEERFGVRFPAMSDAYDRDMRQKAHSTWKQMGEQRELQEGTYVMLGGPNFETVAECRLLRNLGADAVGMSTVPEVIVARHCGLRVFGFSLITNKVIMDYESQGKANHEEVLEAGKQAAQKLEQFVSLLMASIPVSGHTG", "assay": "Enzymatic ribosylation with α-D-ribose-1-phosphate, calf PNP wild type", "format": "biochemical", "conditions": "for Vmax (Relative): ribosylation, relative to guanine ribosylation rate (=100); for ribosylation activity: trimeric calf spleen PNP, wild type", "procedure": "(§1) Recombinant E. coli PNP, calf spleen PNP, and their mutated forms were expressed in E. coli and purified according to the procedures described earlier. Enzyme concentrations were calculated per monomer.\n(§2) Enzymatic ribosylation reactions were carried out in 1 mL cuvettes (pathlength 4 mm) in ~50 mM HEPES buffer, pH 7.3, using 0.5 mM R1P as a ribose source. Reactions were followed fluorimetrically (see Section 2.4). On a larger scale (2–4 mg), the reactions were run in Eppendorf tubes, volume 2–3 mL, using either R1P (3–10 mM) or 7-methylguanosine as ribose sources. Products were purified by semi-preparative HPLC, concentrated and the final solutions kept frozen. Their structure has been confirmed by NMR (see Section 2.4 and Supplementary Materials) and by MS: comp. 3: m/z = 292.10385, comp. 4: m/z = 292.10400, comp. 5: m/z = 292.10398, calculated for C12H13N5O4 + H: 292.10403. Phosphorolysis reactions were run in 40–50 mM phosphate buffer, pH 7.0 or 6.5, and followed spectrally or fluorimetrically. Kinetic parameters were calculated by standard methods."}, "calf PNP N243D": {"target": "T2, calf PNP N243D (Bos taurus, UniProt P55859, N243D)", "T2 construct": "made in house; host or cells: E. coli", "T2 sequence (P55859 1-289 N243D)": "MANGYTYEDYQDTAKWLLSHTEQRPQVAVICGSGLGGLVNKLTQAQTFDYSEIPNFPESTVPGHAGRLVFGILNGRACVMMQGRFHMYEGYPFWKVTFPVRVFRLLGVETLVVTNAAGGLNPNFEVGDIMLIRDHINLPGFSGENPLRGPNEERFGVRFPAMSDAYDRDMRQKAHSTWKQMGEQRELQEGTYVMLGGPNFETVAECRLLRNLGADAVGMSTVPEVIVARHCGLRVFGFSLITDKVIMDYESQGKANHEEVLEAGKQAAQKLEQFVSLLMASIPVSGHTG", "assay": "Enzymatic ribosylation with α-D-ribose-1-phosphate, calf PNP N243D mutant", "format": "biochemical", "conditions": "for Vmax (Relative): ribosylation, relative to guanine ribosylation rate (=100)", "procedure": "as §1, §2"}, "E. coli PNP-wt [2]": {"target": "T3, E. coli PNP-wt (Escherichia coli, UniProt P0ABP8)", "T3 construct": "made in house; host or cells: E. coli", "T3 sequence (P0ABP8 2-239 limits assumed)": "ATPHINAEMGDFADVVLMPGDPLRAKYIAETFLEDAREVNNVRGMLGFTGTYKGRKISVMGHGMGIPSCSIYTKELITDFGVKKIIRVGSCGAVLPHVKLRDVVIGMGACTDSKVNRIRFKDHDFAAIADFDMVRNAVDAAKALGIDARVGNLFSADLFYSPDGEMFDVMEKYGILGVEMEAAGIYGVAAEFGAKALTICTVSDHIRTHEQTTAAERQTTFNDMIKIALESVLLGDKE", "assay": "Enzymatic ribosylation with α-D-ribose-1-phosphate, E. coli PNP wild type", "format": "biochemical", "conditions": "for Vmax (Relative): ribosylation, relative to guanine ribosylation rate (=100)", "procedure": "as §1, §2"}, "E. coli PNP D204N": {"target": "T4, E. coli PNP D204N (Escherichia coli, UniProt P0ABP8, D205N)", "T4 construct": "made in house; host or cells: E. coli", "assay": "Enzymatic ribosylation with α-D-ribose-1-phosphate, E. coli PNP D204N mutant", "format": "biochemical", "procedure": "as §1, §2"}, "E. coli PNP S90A": {"target": "T5, E. coli PNP S90A (Escherichia coli, UniProt P0ABP8, S91A)", "T5 construct": "made in house; host or cells: E. coli", "assay": "Enzymatic ribosylation with α-D-ribose-1-phosphate, E. coli PNP S90A mutant", "format": "biochemical", "procedure": "as §1, §2"}, "E. coli PNP": {"target": "T6, E. coli PNP (Escherichia coli, UniProt P0ABP8)", "T6 construct": "made in house; host or cells: E. coli", "assay": "Fluorescence titration of E. coli PNP with ligand (enzyme-ligand complexes)", "format": "binding", "conditions": "in the presence of phosphate, 40 mM, pH 7, 20 °C", "procedure": "Additionally, the fluorescence excitation spectra reveal fluorescence energy transfer (FRET) from the protein to the complexed ligand, since they show marked enhancement in the region 270–280 nm, where the tyrosine residues of the PNP molecule absorb (Figure 10).\nFigure 10 Changes in fluorescence excitation (a) and emission spectra (b), observed during the titration of E. coli PNP with N^2,3-etheno-2-aminopurine (2). […] Spectra of the free ligand (3.5 μM) are given for comparison (points). Excitation spectrum of the protein, monitored at 310 nm, is given in black. Conditions: 40 mM phosphate, pH 7, at 20 °C. Concentration of protein was 10.1 μM (per subunit); that of the titrant was 0 to 3.5 μM. Lower panels: Fluorescence difference spectra, calculated from data presented on panels (a) and (b), (c) difference excitation (observed at 380 nm), (d) difference emission spectra, excited at 275 nm. Substrate concentrations are 0.17, 0.69, 1.37, 2.36 and 3.31 μM.\nEtheno-tubercidine (6) forms somewhat similar fluorescent complexes with the E. coli PNP. As shown below, FRET from the protein to the ligand is evident in the excitation spectra (Figure 11), and the ligand fluorescence blue shifted from 415 to ca. 390 nm (Figure 11b,c). In this case more than 60% of protein fluorescence is quenched when protein binding sites are saturated (cf. Figure 11). […]"}, "E. coli PNP-wt [3]": {"target": "T3, E. coli PNP-wt", "assay": "Enzymatic phosphorolysis of ribosides, E. coli PNP wild type", "format": "biochemical", "conditions": "for Vmax (Relative): relative to Vmax of guanosine phosphorolysis (=100)", "procedure": "as §1, §2"}, "calf PNP-wt": {"target": "T7, calf PNP-wt (Bos taurus, UniProt P55859)", "T7 construct": "made in house; host or cells: E. coli", "T7 sequence (P55859 1-289)": "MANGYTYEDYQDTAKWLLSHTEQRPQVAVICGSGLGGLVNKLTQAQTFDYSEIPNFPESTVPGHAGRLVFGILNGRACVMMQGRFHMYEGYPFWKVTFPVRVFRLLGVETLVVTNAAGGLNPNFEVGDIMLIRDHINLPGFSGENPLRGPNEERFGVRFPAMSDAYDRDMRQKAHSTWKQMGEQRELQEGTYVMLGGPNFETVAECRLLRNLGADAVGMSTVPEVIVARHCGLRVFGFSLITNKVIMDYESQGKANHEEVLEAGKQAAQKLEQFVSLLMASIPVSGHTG", "assay": "Enzymatic phosphorolysis of ribosides, calf PNP wild type", "format": "biochemical", "conditions": "for Km: 40 mM phosphate buffer pH 7; for Vmax (Relative): relative to Vmax of guanosine phosphorolysis (=100)", "procedure": "as §1, §2"}, "[4]": {"conditions": "acidic dissociation, read-out: pKa (acidic dissociation of the imidazole proton)"}, "[5]": {"conditions": "protonation, read-out: pKa (protonation)"}, "[6]": {"conditions": "ribosylation by R1P, 40 mM HEPES pH 7"}, "[7]": {"conditions": "ribosylation, relative to guanine ribosylation rate (=100)"}}, "note": "Read-outs that look alike come from different tables or passages of the source.", "data": [{"smiles": "c1cn2cc3nc[nH]c3nc2n1", "note": "[Compound 1, 1,N^2-etheno-2-aminopurine]", "values": [{"measurement": "pKa", "setting": "[1]; [4]", "result": 8.2}, {"measurement": "pKa", "setting": "[1]; [5]", "result": 5.6}, {"measurement": "Km", "setting": "calf spleen PNP (wt); ribosylation by R1P, calf-wt PNP, 40 mM HEPES pH 7", "result": "nr"}, {"measurement": "Vmax (Relative)", "setting": "calf spleen PNP (wt); calf-wt PNP", "result": "< 0.1"}, {"measurement": "ribosylation activity", "setting": "calf spleen PNP (wt)", "result": "apparently inactive"}, {"measurement": "Vmax (Relative)", "setting": "calf PNP N243D; calf PNP N243D", "result": "traces"}, {"measurement": "Ribosylation Site", "setting": "E. coli PNP-wt [2]", "result": "mostly N^2"}, {"measurement": "Km", "setting": "E. coli PNP-wt [2]; [6]", "result": "< 10", "unit": "µM"}, {"measurement": "Vmax (Relative)", "setting": "E. coli PNP-wt [2]", "result": "~1"}]}, {"smiles": "c1cn2c(n1)ncc1nc[nH]c12", "note": "[Compound 2, N^2,3-etheno-2-aminopurine]", "values": [{"measurement": "pKa", "setting": "[1]; [4]", "result": "~9.5"}, {"measurement": "pKa", "setting": "[1]; [5]", "result": 5}, {"measurement": "Ribosylation Site", "setting": "calf spleen PNP (wt); calf-wt PNP", "result": "predominantly N^2"}, {"measurement": "Vmax (Relative)", "setting": "calf spleen PNP (wt); calf-wt PNP", "result": "~5"}, {"measurement": "ribosylation activity", "setting": "calf spleen PNP (wt)", "result": "moderate rate"}, {"measurement": "Ribosylation Site", "setting": "calf PNP N243D; calf PNP N243D", "result": "predominantly N^2"}, {"measurement": "ribosylation activity", "setting": "calf PNP N243D; calf PNP mutated in the active site (N243D)", "result": "fairly rapidly ribosylated"}, {"measurement": "Vmax (Relative)", "setting": "calf PNP N243D; calf PNP N243D", "result": 29}, {"measurement": "Ribosylation Site", "setting": "E. coli PNP-wt [2]", "result": "predominantly N^2"}, {"measurement": "Vmax (Relative)", "setting": "E. coli PNP-wt [2]", "result": 20}, {"measurement": "Ribosylation Site", "setting": "E. coli PNP D204N", "result": "predominantly N^2"}, {"measurement": "Km", "setting": "E. coli PNP D204N; [6]", "result": 12, "unit": "µM"}, {"measurement": "Vmax (Relative)", "setting": "E. coli PNP D204N; [7]", "result": 30}, {"measurement": "Ribosylation Site", "setting": "E. coli PNP S90A", "result": "predominantly N^2"}, {"measurement": "Km", "setting": "E. coli PNP S90A; [6]", "result": "~20", "unit": "µM"}, {"measurement": "Vmax (Relative)", "setting": "E. coli PNP S90A; [7]", "result": 23}, {"measurement": "quenching of the protein fluorescence at 305 nm", "setting": "E. coli PNP", "result": "moderate quenching"}]}, {"smiles": "OC[C@H]1O[C@@H](n2cnc3cn4ccnc4nc32)[C@H](O)[C@@H]1O", "note": "[Compound 3, 1,N^2-etheno-2-aminopurine-N^9-β-D-riboside]", "values": [{"measurement": "Km", "setting": "E. coli PNP-wt [3]; 40 mM phosphate buffer pH 7", "result": "nr"}, {"measurement": "Vmax (Relative)", "setting": "E. coli PNP-wt [3]", "result": "<1"}, {"measurement": "Km", "setting": "calf PNP-wt", "result": "nr"}, {"measurement": "Vmax (Relative)", "setting": "calf PNP-wt", "result": "<0.1"}]}, {"smiles": "OC[C@H]1O[C@@H](n2ccn3cc4ncnc-4nc23)[C@H](O)[C@@H]1O", "note": "[Compound 4, 1,N^2-etheno-2-aminopurine-N^2-β-D-riboside]", "values": [{"measurement": "pKa", "setting": "[1]; [5]", "result": "~6.3"}, {"measurement": "Vmax (Relative)", "setting": "E. coli PNP-wt [3]", "result": 4}, {"measurement": "Km", "setting": "calf PNP-wt", "result": "nr"}, {"measurement": "Vmax (Relative)", "setting": "calf PNP-wt", "result": "<0.1"}]}]}
